Columns and labels:
[1] = system: A. fumigatus Af293 biofilm; experiment: A. fumigatus biofilm assay (crystal violet); type: cell-based, Aspergillus fumigatus; settings: for Relative absorbance at 595 nm compared to methanol control, Mean: A. fumigatus Af293 biofilm, 100 μM, 24 hrs, crystal violet; for effectiveness against fungal biofilms formed by Aspergillus fumigatus (in words): summary statement
Method: A. fumigatus Af293 was routinely grown on Sabouraud dextrose agar (SDA) in 100 ml cell culture flasks at 37° C. for 3-4 days until a lawn of fungal growth was observed.
(§1) A. fumigatus Af293 was grown on SDA in 100 ml cell culture flasks at 37° C. for 3-4 days. Conidia were harvested by flooding the surface of the agar plates with 5 ml PBS (Oxoid) containing 0.025% (v/v) Tween 20 and gently moving the liquid over the surface of the fungal lawn. The conidial suspension was transferred into a 25 ml sterile container and conidia were counted using a Neubauer haemocytometer and light microscope. Conidia were adjusted to the required concentration in RPMI 1640 (Sigma) buffered to pH 7.0 with 0.165 M MOPS immediately prior to biofilm formation analysis.
(§2) To assess biofilm formation, counted A. fumigatus spores (1×10^5) in MOPS buffered RPMI 1640 were inoculated into 24- and 96-well plates and grown overnight in the presence of 100 μM HHQ, PQS and the test compounds. After 24 hrs, the media was removed and the biofilm washed twice with distilled water after which 0.1% crystal violet (CV) was added to each well and allowed to stand for 1 hr at room temperature. The crystal violet was removed and all wells washed in a water bath by inversion. Ethanol was added to each well to solubilise biofilms after which samples were read on a spectrophotometer at Abs595 nm.

[2] = system: mammalian cells; experiment: Cytotoxicity towards mammalian cells (summary statement); type: cell-based
Method: Lactate dehydrogenase (LDH) release from IB3 lung epithelial cells was assayed as a measure of cytotoxicity using an LDH colorimetric kit (Roche) according to manufacturers' instructions. Briefly, IB3-1 cells were seeded onto 96 well plates and treated with methanol (control) and test compounds (100 μM). Following 16 hr incubation at 37° C. and 5% CO2, supernatants were removed and added to catalyst reaction mixture in a fresh plate and further incubated at 37° C. and 5% CO2 for 30 mins to allow for colour development. After this period, the plate was analysed on an ELISA plate reader at OD490 nm. Cytotoxicity was expressed as a percentage of cells treated with 0.1% (v/v) Triton (100% cytotoxicity). The results are detailed in table 3:
The above experiments were repeated, testing some compounds against further cell lines (A549, DU145 and HeLa).

[3] = system: Pseudomonus aeruginosa; experiment: Virulence of Pseudomonas aeruginosa (summary statement); type: cell-based; settings: unlike HHQ and PQS
Method: The virulence of compounds B1, B2, C2, C3, C4, C5, C6, C8 and C11 towards P. aeruginosa was assessed using the following method:
P. aeruginosa strains were cultured as described above for 24 hr, with the addition of test compounds (10 μM). Cultures were centrifuged at 4000 rpm for 10 minutes and the cell free supernatant (5 ml) removed. Chloroform (3 ml) was added, and mixed by vortex. After centrifugation at 4000 rpm for 5 mins, the lower aqueous phase was transferred to 0.2 M HCl (2 ml). Samples were mixed by vortex and centrifuged at 4000 rpm for 5 mins to separate the phases. An aliquot of the top phase (1 ml) was removed and spectrophotmetrically analysed at OD570 nm. Phenazine production was calculated using the following formula: OD570 nm×2×17.072 and the units expressed in μg/ml. […]

[4] = system: C. albicans strain SC5314 biofilm; experiment: XTT metabolic assay of C. albicans biofilm; type: cell-based, Candida albicans; settings: C. albicans biofilm, test compound 100 μM, 24 hr; MeOH control 0.647, untreated 0.851
Method: C. albicans strain SC5314 was sub-cultured from 15% (v/v) glycerol stocks at −80° C. onto Yeast Peptone Dextrose (YPD) medium [1% (w/v) yeast extract, 2% (w/v) peptone and 2% (w/v) dextrose] and incubated at 30° C. overnight.
The test compounds in desiccated form were re-suspended in Methanol to create a 10 mM stock. […]
The ability of some of the compounds detailed in example 1 to disrupt Candida albicans was tested using Confocal Scanning Laser Microscopy and an XTT Metabolic Assay. The XTT assay is a commonly used quantitative method assessing Candida biofilm mass and growth often in response to novel drug therapies.
C. albicans biofilm formation was carried out in 96 well plates by a method of the prior art. Briefly, C. albicans was inoculated into Yeast Nitrogen Base [10% (w/v)] and glucose/maltose [10% (w/v)] and incubated overnight at 30° C. Seeding densities for all subsequent experiments (N=3) were OD600=0.05. Cells were grown in Yeast Nitrogen Base supplemented with 1 M Phosphate buffer and acetyl-D-glucosamine (YNB-NP) along with appropriate volumes of test compound to provide the desired concentration. Cells were cultured in 96 well plates for 1 hr at 37° C. to facilitate yeast attachment. After this incubation, the supernatants were aspirated, the wells washed twice with YNB-NP media, and fresh media with the same concentration of test compound added to the appropriate wells. The plate was incubated for 24 hr at 37° C. The next day, the cultures were aspirated and the wells washed once with YNB-NP media.
C. albicans biofilm quantification was carried out in 96 well plates using a semi-quantitative Tetrazolium salt, 2,3-bis-(2-methoxy-4-nitro-5-sulfophenyl)-2H tetrazolium-5-carboxanilide inner salt (XTT) reduction assay (Hawser, Tunney et al, Antimicrob Agents Chemother. 2004 May; 48(5):1879-81). XTT (0.01 g) was dissolved in sterile water (20 ml) and filter sterilized. 10 μl of Menadione dissolved in Acetone was added to the XTT solution, just before use. The XTT-Menadione Solution (100 μl) was added to each well. The plate was incubated in the dark at 37° C. for up to 2 hr to allow for colour development. The OD492 nm was recorded for each well. Experiments were repeated at least three times, with at least eight technical replicates.
Experiments were first carried out using the test compound at concentration of 100 μM.

[5] = system: P. aeruginosa PAO1 pqsA-pqsA-lacZ strain; experiment: Phenazine extraction (phenazine production); type: cell-based; settings: for Phenazine, Mean: PAO1 pqsA-pqsA-lacZ strain, test compounds 10 μM, 24 hr, methanol control 0.080; for Normalised Phenazine, Mean: normalized to the methanol control (=1), n>=2
Method: (§3) P. aeruginosa strains, PAO1 and pqsA mutant, containing the chromosomally inserted pqsA-lacZ promoter fusion on plasmid pUC18-mini-Tn7, were sub-cultured from glycerol stocks onto LB agar plates, supplemented with Carbenicillin (200 μg/ml) and X-gal (40 μg/ml), and incubated at 37° C. overnight. Single colonies were inoculated into LB broth (20 ml), supplemented with Carbenicillin (200 μg/ml), and incubated at 37° C., shaking at 180 rpm overnight. For subsequent experiments, the OD600 nm was recorded and a starting OD600 nm of 0.02 was inoculated into fresh LB broth, supplemented with Carbenicillin (200 μg/ml) and incubated at 37° C., shaking at 180 rpm.
P. aeruginosa strains were cultured as described above for 24 hr, with the addition of test compounds (10 μM). Cultures were centrifuged at 4000 rpm for 10 minutes and the cell free supernatant (5 ml) removed. Chloroform (3 ml) was added, and mixed by vortex. After centrifugation at 4000 rpm for 5 mins, the lower aqueous phase was transferred to 0.2 M HCl (2 ml). Samples were mixed by vortex and centrifuged at 4000 rpm for 5 mins to separate the phases. An aliquot of the top phase (1 ml) was removed and spectrophotmetrically analysed at OD570 nm. Phenazine production was calculated using the following formula: OD570 nm×2×17.072 and the units expressed in μg/ml.
(§4) The phenazine production levels and Miller units in the PAO1 pqsA-pqsA-lacZ strain are detailed in table 5.
(§5) The virulence of compounds B2, C13 and C15 towards P. aeruginosa was assessed using an analogous method.

[6] = system: pqsA-lacZ promoter fusion; experiment: Promoter fusion based expression analysis (pqsA-lacZ, Miller units); type: cell-based, P. aeruginosa; settings: for Miller Units, Mean: PAO1 pqsA-pqsA-lacZ strain, 100 μM, overnight, methanol control 12287; for Normalised Miller Units, Mean: normalized to the methanol control (=1), n>=2
Method: as §3
Promoter fusion analyses were performed in a 96-well format. Briefly, overnight cultures of wild-type PAO1 pqsA-lacZ (pLP0996) and mutant strain PAO1 pqsA^− pqsA-LacZ were diluted to OD600 nm=0.02 in LB. Test compounds at 100 μM final concentration were added, mixed, aliquoted into 96 well plates and incubated overnight at 37° C. with shaking. The next day, OD600 nm values were recorded in a plate reader. Aliquots of cells (0.02 ml) were permeabilised [100 mM dibasic sodium phosphate (Na2HPO4), 20 mM KCl, 2 mM MgSO4, 0.8 mg/mL CTAB (hexadecyltrimethylammonium bromide), 0.4 mg/mL sodium deoxycholate, 5.4 μL/mL beta-mercaptoethanol] and added to substrate solution [60 mM Na2HPO4, 40 mM NaH2PO4, 1 mg/mL o-nitrophenyl-β-D-Galactoside (ONPG), 2.7 μL/mL β-mercaptoethanol]. The kinetics of colour development was monitored and the reactions were stopped using 1M NaCO3. OD420 nm were recorded as above. Miller units were calculated using the following equation; 1000×[OD420 nm/(OD600 nm)×0.02 ml×reaction time (mins)].
as §4, §5

[7] = system: A. fumigatus CFBRC1 biofilm; experiment: A. fumigatus biofilm assay, clinical source CFBRC1; type: cell-based, Aspergillus fumigatus; settings: biofilm from clinical source CFBRC1
Method: as §1, §2
(§6) The above experiments were carried out using biofilms grown from laboratory sources of A. fumigatus. The experiments were repeated to test some compounds against biofilms grown from three different clinical sources of A. fumigatus (CFBRC1, CFBRC2 and CFBRC3. The results are shown in table 8: […]

[8] = system: A. fumigatus CFBRC2 biofilm; experiment: A. fumigatus biofilm assay, clinical source CFBRC2; type: cell-based, Aspergillus fumigatus; settings: biofilm from clinical source CFBRC2
Method: as §1, §2, §6

[9] = system: A. fumigatus CFBRC3 biofilm; experiment: A. fumigatus biofilm assay, clinical source CFBRC3; type: cell-based, Aspergillus fumigatus; settings: biofilm from clinical source CFBRC3
Method: as §1, §2, §6

SMILES | Relative absorbance at 595 nm compared to methanol control, Mean [1] | effectiveness against fungal biofilms formed by Aspergillus fumigatus (in words) [1] | cytotoxicity towards mammalian cells (in words) [2] | effect on virulence of Pseudomonus aeruginosa (in words) [3] | Absorbance at 492 nm, Mean (XTT) [4] | Phenazine, Mean [5] [µg/mL] | Miller Units, Mean [6] [Miller Units] | Relative absorbance compared to MeOH (=1), Mean [7] | Relative absorbance compared to MeOH (=1), Mean [8] | Relative absorbance compared to MeOH (=1), Mean [9] | Normalised Phenazine, Mean [5] | Normalised Miller Units, Mean [6]
CCCCCCCc1cc(=O)c2cc(CCCCCC)ccc2[nH]1 [Compound C7] | 0.27 | effective | reduced cytotoxicity | do not increase the virulence | – | – | – | – | – | – | – | –
CCCCCCCCCc1cc(=O)c2cc(OC)ccc2[nH]1 [Compound C8] | 0.47 | effective | reduced cytotoxicity | do not increase the virulence | 0.457 | 0.205 | 11753 | – | – | – | – | –
CCCCCCCc1cc(=O)c2ccc(OC)cc2[nH]1 [Compound C9] | 0.18 | effective | reduced cytotoxicity | do not increase the virulence | – | – | – | 0.593 | 0.484 | 0.439 | – | –
CCCCCCCc1cc(=O)c2cc(OC)ccc2[nH]1 [Compound C11] | – | – | reduced cytotoxicity | do not increase the virulence | 0.242 | 0.432 | 12254 | – | – | – | – | –
CCCCCCCc1cc(=O)c2cc(C(=O)OCC)ccc2[nH]1 [Compound C13] | 0.38 | effective | reduced cytotoxicity | do not increase the virulence | – | – | – | 0.507 | 0.620 | 0.609 | 0.747 ratio to methanol control | 0.3715
CCCCCCCc1cc(=O)c2cc(F)ccc2[nH]1 [Compound C14] | 0.42 | – | reduced cytotoxicity | – | – | – | – | 0.550 | 0.823 | 0.501 | – | –
CCCCCCCc1cc(=O)c2c(C)cc(C)cc2[nH]1 [Compound C15] | 0.25 | effective | reduced cytotoxicity | do not increase the virulence | – | – | – | 0.518 | 0.443 | 0.413 | 0.4984 ratio to methanol control | 0.4671
